Measurements reported in paper PMC5507300, “Antibacterial small molecules targeting the conserved TOPRIM domain of DNA gyrase” (PLoS ONE, 2017).
In brackets after ≈: the same amount, converted by molar mass. Like-named read-outs stand apart in the source and are kept apart here.

Columns and labels:
Format in all cases: cell-based
E. coli HS151 (ΔtolC) = assay: microbe, parasite or virus in culture; settings: Escherichia coli
Source text: (§1) E. coli HS151 (ΔtolC) has been described previously. […] E. coli BW25113 and the Keio gene deletion collection based on BW25113 [25] were obtained from Thermo Fisher Scientific (Waltham, MA) and described in [26]. The plasmid-borne FQ resistance determinant, qnrVC3 [27], was kindly provided by D. Hooper (Massachusetts General Hospital). […] MB2884 (E. coli) and CL15245 (K. pneumoniae) are clinical isolates from the Merck & Co., Inc., Kenilworth, NJ, USA, strain collection. S. aureus COL is a methicillin-resistant clinical isolate.
(§2) Compound doubling dilutions were prepared in 100% DMSO (Sigma Aldrich) and 2 μL of each dilution was transferred to a 96-well plate with lid (Thermo Scientific). Inoculum for all MIC testing was prepared using the BBL Prompt Inoculation System (Becton Dickinson, Franklin Lakes, NJ USA) as described by the manufacturer to produce a suspension of cells at approximately 1.5 x 10^8 colony forming units (CFU)/mL [34–36] and a further dilution (1:1000) was made into cation adjusted Mueller-Hinton broth (CAMH broth, Becton-Dickinson). One hundred μL of this inoculum were then transferred to each well of the 96-well plate containing diluted compound (above). Plates were covered and incubated overnight (18 hrs.) at 37°C.

[1] = tested on: E. coli GYR103 GyrB L446Q; assay: microbe, parasite or virus in culture; settings: Escherichia coli
Source text: (§3) E. coli HS151 (ΔtolC) has been described previously. Gyrase inhibitor-resistant isolates (GYR101-108) were derived by selection for spontaneous resistance to MRL-770 or MRL-423 (Fig 1) in E. coli HS151 as described below. E. coli BW25113 and the Keio gene deletion collection based on BW25113 [25] were obtained from Thermo Fisher Scientific (Waltham, MA) and described in [26]. The plasmid-borne FQ resistance determinant, qnrVC3 [27], was kindly provided by D. Hooper (Massachusetts General Hospital). MB9796 (A. baumannii) is a derivative of MB9797 (ATCC19606) lacking lipopolysaccharide. The efflux-defective P. aeruginosa strain MB5890 (CB398) is a derivative of MB5919 (PAO1). MB2884 (E. coli) and CL15245 (K. pneumoniae) are clinical isolates from the Merck & Co., Inc., Kenilworth, NJ, USA, strain collection. S. aureus COL is a methicillin-resistant clinical isolate.
as §2
After the agar solidified, 5 μL of a saturated bacterial culture, grown in CAMH broth, were dispensed on the agar surface and allowed to dry at room temperature. […] To select for resistance, a 100 mm petri dish was filled with 25 mL CAMH agar containing 8 μg/mL MRL-770 or 0.5 μg/mL MRL-423 (Fig 1). The cells in 1 mL of an overnight culture of E. coli HS151 (~10^9 CFU/mL) were concentrated by centrifugation and spread onto the surface of an MRL-770 or MRL-423 containing plate. After the surface dried at room temperature the plate was incubated at 37°C overnight. Any colonies that arose were counted and an approximate frequency of resistance was calculated after confirming resistance by restreaking on media containg compound as well as measuring MICs (see Results). Genomic DNA from the parent strain (E. coli HS151) and purified (restreaked) resistant isolates was obtained with a GeneJET genomic DNA purification kit according to the manufacturer’s instructions (Fisher Scientific). Assembled whole genome mutant sequences were then compared to the parent strain and polymorphisms were identified as described.

[2] = tested on: E. coli GYR101 GyrB F513L; assay: microbe, parasite or virus in culture; settings: Escherichia coli
Source text: as §1, §2
(§4) After the agar solidified, 5 μL of a saturated bacterial culture, grown in CAMH broth, were dispensed on the agar surface and allowed to dry at room temperature. […] After the surface dried at room temperature the plate was incubated at 37°C overnight. […] Genomic DNA from the parent strain (E. coli HS151) and purified (restreaked) resistant isolates was obtained with a GeneJET genomic DNA purification kit according to the manufacturer’s instructions (Fisher Scientific). Assembled whole genome mutant sequences were then compared to the parent strain and polymorphisms were identified as described.

[3] = tested on: E. coli GYR102 GyrB E466EV; assay: microbe, parasite or virus in culture; settings: Escherichia coli
Source text: as §1, §2, §4

[4] = tested on: E. coli GYR104 GyrB L470I; assay: microbe, parasite or virus in culture; settings: Escherichia coli
Source text: as §1, §2, §4

[5] = tested on: E. coli GYR105 GyrB T469K; assay: microbe, parasite or virus in culture; settings: Escherichia coli
Source text: as §1, §2, §4

[6] = tested on: E. coli GYR106 GyrB F513L/A468V; assay: microbe, parasite or virus in culture; settings: Escherichia coli
Source text: as §1, §2, §4

[7] = tested on: E. coli GYR107 GyrB F513L/L422V; assay: microbe, parasite or virus in culture; settings: Escherichia coli
Source text: as §1, §2, §4

[8] = tested on: E. coli GYR108 GyrB L470I/V467L; assay: microbe, parasite or virus in culture; settings: Escherichia coli
Source text: as §1, §2, §4

E. coli CIP101 GyrA D87N = assay: microbe, parasite or virus in culture; settings: Escherichia coli
Procedure: as §2

[9] = tested on: E. coli MB2884 (clinical isolate); assay: Broth microdilution MIC, E. coli MB2884; settings: Escherichia coli
Source text: as §1, §2

[10] = tested on: A. baumannii ΔlpxC MB9796; assay: Broth microdilution MIC, A. baumannii MB9796; settings: Acinetobacter baumannii
Source text: as §3, §2

[11] = tested on: A. baumanii MB9797 (ATCC19606); assay: Broth microdilution MIC, A. baumannii MB9797; settings: Acinetobacter baumannii
Source text: as §3, §2

[12] = tested on: P. aeruginosa MB5919 (PAO1); assay: Broth microdilution MIC, P. aeruginosa MB5919; settings: Pseudomonas aeruginosa
Source text: as §1, §2

[13] = tested on: K. pneumoniae CL15245 (clinical isolate); assay: Broth microdilution MIC, K. pneumoniae CL15245; settings: Klebsiella pneumoniae
Source text: as §1, §2

S. aureus (MRSA) COL = assay: Broth microdilution MIC, S. aureus COL; settings: Staphylococcus aureus
Source text: as §3, §2

[14] = tested on: P. aeruginosa(effluxΔ) MB5890; assay: microbe, parasite or virus in culture; settings: Pseudomonas aeruginosa
Source text: as §1, §2

[15] = Table 2, HS151, GyrB mutation none

## COc1cc(Cc2cnc(N)nc2N)cc(OC)c1OC [Trimeth-oprim]
E. coli HS151 (ΔtolC); [15]
  MIC: 0.0625 µg/mL (≈ 0.215 µM)
[1]
  MIC: 0.0625 µg/mL (≈ 0.215 µM)
[2]
  MIC: 0.0625 µg/mL (≈ 0.215 µM)
[3]
  MIC: 0.0625 µg/mL (≈ 0.215 µM)
[4]
  MIC: 0.0625 µg/mL (≈ 0.215 µM)
[5]
  MIC: 0.0625 µg/mL (≈ 0.215 µM)
[6]
  MIC: 0.0625 µg/mL (≈ 0.215 µM)
[7]
  MIC: 0.0625 µg/mL (≈ 0.215 µM)
[8]
  MIC: 0.125 µg/mL (≈ 0.431 µM)
E. coli CIP101 GyrA D87N
  MIC: 0.0625 µg/mL (≈ 0.215 µM)

## C[C@H]1COc2c(N3CCN(C)CC3)c(F)cc3c(=O)c(C(=O)O)cn1c23 [levofloxacin]
E. coli HS151 (ΔtolC); 18 h, Table 1, HS151 E. coli ΔtolC
  MIC: 0.00195 µg/mL (≈ 0.0054 µM)
[9]
  MIC: 0.0156 µg/mL (≈ 0.0432 µM)
[10]
  MIC: 0.0156 µg/mL (≈ 0.0432 µM)
[11]
  MIC: 0.125 µg/mL (≈ 0.346 µM)
[12]
  MIC: > 0.125 µg/mL
[13]
  MIC: 0.0156 µg/mL (≈ 0.0432 µM)
S. aureus (MRSA) COL; MRSA
  MIC: > 0.125 µg/mL
[1]
  MIC: 0.0078 µg/mL (≈ 0.0216 µM)
[2]
  MIC: 0.0078 µg/mL (≈ 0.0216 µM)
[3]
  MIC: 0.0312 µg/mL (≈ 0.0865 µM)
[4]
  MIC: 0.0078 µg/mL (≈ 0.0216 µM)
[6]
  MIC: 0.0078 µg/mL (≈ 0.0216 µM)
E. coli CIP101 GyrA D87N
  MIC: 0.0625 µg/mL (≈ 0.173 µM)

## CN(C)[C@@H]1C(O)=C(C(N)=O)C(=O)[C@@]2(O)C(O)=C3C(=O)c4c(O)cccc4[C@@](C)(O)[C@H]3C[C@@H]12 [tetracycline]
E. coli HS151 (ΔtolC); Table 1, HS151 E. coli ΔtolC
  MIC: 0.5 µg/mL (≈ 1.13 µM)
E. coli HS151 (ΔtolC); [15]
  MIC: 0.5 µg/mL (≈ 1.13 µM)
[14]
  MIC: 0.25 µg/mL (≈ 0.563 µM)
[10]
  MIC: 0.25 µg/mL (≈ 0.563 µM)
[11]; Table 1, MB9797 A. baumanii, read-out: MIC
  MIC: 2 µg/mL (≈ 4.5 µM)
[12]; Table 1, MB5919 P. aeruginosa, read-out: MIC
  MIC: 32 µg/mL (≈ 72 µM)
[13]; Table 1, CL15245 K. pneumoniae, read-out: MIC
  MIC: 2 µg/mL (≈ 4.5 µM)
S. aureus (MRSA) COL; Table 1, COL S. aureus (MRSA), read-out: MIC
  MIC: > 64 µg/mL
[1]
  MIC: 0.5 µg/mL (≈ 1.13 µM)
[2]
  MIC: 0.5 µg/mL (≈ 1.13 µM)
[3]
  MIC: 0.5 µg/mL (≈ 1.13 µM)
[4]
  MIC: 0.5 µg/mL (≈ 1.13 µM)
[5]
  MIC: 0.5 µg/mL (≈ 1.13 µM)
[6]
  MIC: 0.5 µg/mL (≈ 1.13 µM)
[7]
  MIC: 0.5 µg/mL (≈ 1.13 µM)
[8]
  MIC: 0.5 µg/mL (≈ 1.13 µM)
E. coli CIP101 GyrA D87N
  MIC: 0.5 µg/mL (≈ 1.13 µM)
